{"source": "patent US4452814A", "about": "“Nitrosourea derivatives” (priority 1981, dated 1984)", "key": {"[1]": {"assay": "Acute toxicity (LD50) in BDF1 male mice, i.p. or i.v., Litchfield-Wilcoxon's method", "type": "in vivo", "conditions": "BDF1 male mice about 6 weeks old, observed after 21 days", "text": "The nitrosourea derivatives of formulae (I), (II) and (III) according to this invention are further characterized by their low toxicity. Thus, acute toxicity represented by LD50 of some typical compounds of formula (I), when administered intraperitoneally (i.p.) or intravenously (i.v.) to BDF1 male mice aged about 6-weeks old and observed after the lapse of 21 days according to Litchfield-Wilcoxon's method, is as follows: […]"}, "[2]": {"tested_on": "experimental leukemia and tumors", "conditions": "wide variety of experimental leukemia and tumors; cited from earlier work"}, "Leukemia L 1210 cells": {"tested_on": "Leukemia L 1210 cells", "assay": "Antileukemic activity on Leukemia L 1210 in mice (i.p. inoculated, compound i.p.)", "type": "in vivo, Male BDF1 mice", "conditions": "for Mean survival days, treated: control 7.7", "experimental": "Antileukemic activity of a typical nitrosourea derivative of formula (I) according to this invention was tested on Leukemia L 1210 in mice, details of which are given below.\nMale BDF1 mice, aged about 7 weeks old and weighing 22±1 g were used in groups of five animals for each test.\nLeukemia L 1210 cells were inoculated intraperitoneally in a concentration of 1×10^6 cells/0.05 ml/mouse.\nThe test compound was dissolved in a physiological salt solution to give a series of solutions in predetermined concentrations and 0.1 ml of the each solution was administered intraperitoneally to each mouse once a day from the 24th hour after the tumor cell inoculation for 3 consecutive days. The antileukemic activity of the test compound was assessed by mean survival days and percentage increase in life-span. The percentage increase in life-span (ILS) was calculated as follows: [formula] T: The mean survival days of the treated animals C: The mean survival days of the untreated animals\nThe control test for this purpose was carried out in the same way as that used for the test compound except that 0.1 ml of the physiological salt solution was administered in place of the solution of the test compound."}, "[3]": {"conditions": "0.5 mg/kg i.p. once a day for 3 days"}, "[4]": {"conditions": "1 mg/kg i.p. once a day for 3 days"}, "[5]": {"conditions": "2 mg/kg i.p. once a day for 3 days"}, "[6]": {"conditions": "8 mg/kg i.p. once a day for 3 days"}, "[7]": {"conditions": "16 mg/kg i.p. once a day for 3 days"}}}
{"smiles": "NC(=O)C1CCCN1C(=O)N(CCCl)N=O", "note": "(stereo not drawn) [N-[N'-(2-chloroethyl)-N'-nitrosocarbamoyl]-proline amide]", "values": [{"measurement": "LD50", "setting": "[1]; i.p.", "result": 219.6, "unit": "mg/kg"}, {"measurement": "LD50", "setting": "[1]; i.v.", "result": 195.4, "unit": "mg/kg"}]}
{"smiles": "O=NN(CCCl)C(=O)N[C@H]1[C@H](O)CCC[C@@H]1O", "note": "[DONU, 1-(2-chloroethyl)-3-(1,3/2N-dihydroxycyclohexyl)-1-nitrosourea]", "values": [{"measurement": "antitumor activity, in words", "setting": "[2]", "result": "broad spectrum of antitumor activity"}]}
{"smiles": "NC(=O)CNC(=O)N(CCCl)N=O", "note": "[N-[N'-(2-chloroethyl)-N'-nitrosocarbamoyl]glycine amide]", "values": [{"measurement": "ILS (percentage increase in life-span)", "setting": "Leukemia L 1210 cells; [3]", "result": 32.5, "unit": "%"}, {"measurement": "Mean survival days, treated", "setting": "Leukemia L 1210 cells; [3]", "result": 10.2, "unit": "days"}, {"measurement": "ILS (percentage increase in life-span)", "setting": "Leukemia L 1210 cells; [4]", "result": 37.7, "unit": "%"}, {"measurement": "Mean survival days, treated", "setting": "Leukemia L 1210 cells; [4]", "result": 10.6, "unit": "days"}, {"measurement": "ILS (percentage increase in life-span)", "setting": "Leukemia L 1210 cells; [5]", "result": 81.8, "unit": "%"}, {"measurement": "Mean survival days, treated", "setting": "Leukemia L 1210 cells; [5]", "result": 14.0, "unit": "days"}, {"measurement": "ILS (percentage increase in life-span)", "setting": "Leukemia L 1210 cells; [6]", "result": "> 679.2", "unit": "%"}, {"measurement": "Mean survival days, treated", "setting": "Leukemia L 1210 cells; [6]", "result": "> 60.0", "unit": "days"}, {"measurement": "ILS (percentage increase in life-span)", "setting": "Leukemia L 1210 cells; [7]", "result": "> 679.2", "unit": "%"}, {"measurement": "Mean survival days, treated", "setting": "Leukemia L 1210 cells; [7]", "result": "> 60.0", "unit": "days"}, {"measurement": "LD50", "setting": "[1]; i.v.", "result": 22.4, "unit": "mg/kg"}, {"measurement": "LD50 at 504 h", "setting": "[1]; mouse, in vivo, ip", "result": 21.2, "unit": "mg/kg"}]}
{"smiles": "CN(CC(N)=O)C(=O)N(CCCl)N=O", "note": "[N-[N'-(2-chloroethyl)-N'-nitrosocarbamoyl]sarcosine amide]", "values": [{"measurement": "LD50", "setting": "[1]; i.p.", "result": 392.0, "unit": "mg/kg"}, {"measurement": "LD50", "setting": "[1]; i.v.", "result": 426.6, "unit": "mg/kg"}]}
{"smiles": "O=NN(CCCl)C(=O)N[C@@H]1O[C@H](CO)[C@@H](O)[C@H](O)[C@H]1O", "note": "[GANU, 1-(2-chloroethyl)-3-(β-D-glucopyranosyl)-1-nitrosourea]", "values": [{"measurement": "antitumor activity, in words", "setting": "[2]", "result": "broad spectrum of antitumor activity"}]}
